Reference: patent US20110034507A1, “FARNESOID X RECEPTOR AGONISTS” (SMITHKLINE BEECHAM CORPORATION, priority 2007, published 2011)
“Also recorded” adds a separate entry of the source.

What was measured:
[1] = molecular target: T1, Human FXRα Ligand Binding Domain (Homo sapiens, UniProt Q96RI1); assay: FXR Cofactor Binding Assay (ligand mediated SRC-1 cofactor peptide interaction, time resolved fluorescence); assay type: biochemical; settings: FXRα LBD / SRC-1 (LCD2, 676-700) peptide, TRF; read-out: Activity (pEC50) (converted)
T1 construct: polyhistidine (pRSET-A vector leader) (N); made in house; host or cells: E. coli BL21 (DE3), pRSET-A vector
T1 sequence (Q96RI1 237-472 isoform Q96RI1-2): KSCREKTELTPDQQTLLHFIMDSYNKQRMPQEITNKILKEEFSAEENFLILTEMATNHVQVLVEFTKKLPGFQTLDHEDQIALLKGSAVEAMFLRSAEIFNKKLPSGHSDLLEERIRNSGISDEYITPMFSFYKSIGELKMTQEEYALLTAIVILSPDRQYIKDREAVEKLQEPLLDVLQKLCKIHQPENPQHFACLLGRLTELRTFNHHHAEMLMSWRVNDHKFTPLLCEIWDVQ
From the text: Determination of a ligand mediated cofactor peptide interaction to quantify ligand binding to the nuclear receptor Farnesoid X Receptor (FXR). The method measures the ability of putative ligands to modulate the interaction between the purified bacterial expressed FXRα ligand binding domain (LBD) and a synthetic biotinylated peptide based on residues 676-700 of steroid receptor coactivator-1 (SRC-1) (LXXLL-containing domain-2 where L is the amino acid leucine and X indicates any other amino acid (LCD2), 676-700). The sequence of the SRC-1 peptide used is as published in Iannone, M. A., et al., 2001 Cytometry 44:326-337 where the N-terminus was biotinylated (B) and the C-terminus was amidated. Detection of the associated complex was measured by time resolved fluorescence (TRF). The purified LBD of FXR was labeled with biotin, then mixed with stoichiometric amounts of allophycocyanin (APC) labeled streptavidin (Molecular Probes). The biotinylated peptide was then mixed with a ½ stoichiometric amount of europium labeled streptavidin (Wallac Inc). Each was then blocked with a 5 fold excess of biotin and allowed to equilibrate for 15 min. Equimolar amounts of receptor and peptide were mixed together and were allowed to equilibrate for at least 30 min prior to the addition to either a variable or constant concentrations of the sample for which the affinity is to be determined. After equilibration, the time-resolved fluorescent signal was quantitated using a fluorescent plate reader. The affinity of the test compound was estimated from a plot of fluorescence versus concentration of test compound added.
Ligands that promote the complex formation induce a concentration-dependent increase in time-resolved fluorescent signal.
Human FXRα Ligand Binding Domain (FXRα LBD) was expressed in E. coli strain BL21 (DE3) as an amino-terminal polyhistidine tagged fusion protein. Expression was under the control of an isopropyl-β-D-thiogalactopyranoside (IPTG) inducible T7 promoter. DNA encoding this recombinant protein is subcloned into the pRSET-A expression vector (Invitrogen). The coding sequence of Human FXRα LBD was derived from Genbank accession number U 68233 (amino acids 237 to 472).
Ten-liter fermentation batches were grown in Rich PO4 media with 0.1 mg/mL Ampicillin at 25° C. for 12 hours, cooled to 9° C. and held at that temperature for 36 hours to a density of OD600=14. At this cell density, 0.25 mM IPTG is added and induction proceeded for 24 hours at 9° C., to a final OD600=16. Cells are harvested by centrifugation (20 minutes, 3500×gravity, 4° C.), and concentrated cell slurries were stored in phosphate buffered saline (PBS) at […].
Routinely, 30-40 g cell paste (equivalent to 2-3 liters of the fermentation batch) was resuspended in 200-250 mL Tris buffered saline (TBS), pH 7.2 (25 mM Tris-hydroxymethylamino methane (Tris), 150 mM sodium chloride). Cells were lysed by passing 3 times through a French Press and cell debris was removed by centrifugation (30 minutes, 20,000×gravity, 4° C.). The cleared supernatant was filtered through course pre-filters, and TBS, pH 7.2, 500 mM imidazole was added to obtain a final imidazole concentration of 50 mM. This lysate was loaded onto a column (6×8 cm) packed with Sepharose [Ni^++ charged] Chelation resin (Pharmacia) and pre-equilibrated with TBS pH 7.2/50 mM imidazole. After washing to baseline absorbance with equilibration buffer, the column was washed with one column volume of TBS pH 7.2 containing 90 mM imidazole. FXRα LBD was eluted directly with 365 mM imidazole. Column fractions were pooled and dialyzed against TBS, pH 7.2, containing 0.5 mM EDTA and 5 mM DTT. The dialyzed protein sample was concentrated using Centri-prep 10 K (Amicon) and subjected to size exclusion, using a column (3×90 cm) packed with Sepharose S-75 resin (Pharmacia) pre-equilibrated with TBS, pH 7.2, containing 0.5 mM ethylene diamine tetraacetic acid (EDTA) and 5 mM dithiothreitol (DTT).

[2] = tested on: C57BL mice on high-fat diet; settings: cited from earlier work
[3] = tested on: ob/ob mice; settings: 30 mg/kg intraperitoneally, male ob/ob mice; cited from earlier work
[4] = tested on: db/db mice; settings: cited from earlier work
[5] = tested on: bile duct-ligated mouse; settings: cited from earlier work
[6] = tested on: mice on a lithogenic diet; settings: cited from earlier work
[7] = GW4064 100 mg/kg twice a day orally

For `CC(C)c1onc(-c2c(Cl)cccc2Cl)c1COc1ccc2cc(-c3ccc(C(=O)O)cc3)ccc2c1` [Example 22, 4-[6-({[3-(2,6-Dichlorophenyl)-5-(1-methylethyl)-4-isoxazolyl]methyl}oxy)-2-naphthalenyl]benzoic acid], the EC50 [1] was 102 to 1000 nM.
In the case of `CC(C)c1onc(-c2c(Cl)cccc2Cl)c1COc1ccc2c(ccn2Cc2ccc(C(=O)O)cc2)c1` [Example 13, 4-{[5-({[3-(2,6-Dichlorophenyl)-5-(1-methylethyl)-4-isoxazolyl]methyl}oxy)-1H-indol-1-yl]methyl}benzoic acid], the EC50 [1] is reported as 102 to 1000 nM.
Work on `CC(C)c1onc(-c2c(Cl)cccc2Cl)c1COc1ccc2cc(-c3cccc(NS(=O)(=O)C(F)(F)F)c3)ccc2c1` [Example 28, N-{3-[6-({[3-(2,6-dichlorophenyl)-5-(1-methylethyl)-4-isoxazolyl]methyl}oxy)-2-naphthalenyl]phenyl}-1,1,1-trifluoromethanesulfonamide] yielded an EC50 [1] of 102 to 1000 nM.
In the case of `CC(C)c1onc(-c2c(Cl)cccc2Cl)c1COc1ccc2cc(-c3ccc(C(=O)O)cc3)sc2c1` [Example 9, 4-[6-({[3-(2,6-Dichlorophenyl)-5-(1-methylethyl)-4-isoxazolyl]methyl}oxy)-1-benzothien-2-yl]benzoic acid], the EC50 [1] is reported as 102 to 1000 nM.
In the case of `CC(C)c1onc(-c2c(Cl)cccc2Cl)c1COc1ccc(/C=C/c2cccc(C(=O)O)c2)c(Cl)c1` [GW4064], the “body weight (high-fat diet induced body weight gain)” value ([2]; GW4064 100 mg/kg twice a day orally, 100 mg/kg) is given as “decreased; also recorded: reduced”, the glucose tolerance ([2]; GW4064 100 mg/kg twice a day orally, GTT, 100 mg/kg) is given as “corrected glucose intolerance; also recorded: appeared to improve” and the liver triglyceride content [2, 7] is given as “reduced”. The serum glucose [2, 7] was “decreased”, the serum insulin [2, 7] was “decreased” and the serum triglyceride [2, 7] was “decreased”. The body fat mass [2] was “decreased”, the total cholesterol [2] was “decreased” and the body weight [3] was “did not alter”. For the same molecule, the fasting blood glucose [3] was “no effect”, the food intake [3] was “did not alter” and the glucose tolerance [3] was “improved”. The insulin concentration [3] was “decreased”, the insulin sensitivity [3] was “enhanced” and the “glycogen storage in the liver” value ([4]; db/db mice) was “enhanced”. For the same molecule, the “insulin signalling in the liver” value ([4]; db/db mice) was “enhanced”, the hyperglycemia ([4]; diabetic db/db mice) was “significantly improved” and the hyperlipidemia ([4]; diabetic db/db mice) was “significantly improved”. The NEFA ([4]; oral 30 mg/kg, bid, db/db mice) was “decreased”, the blood glucose ([4]; oral 30 mg/kg, bid, db/db mice) was “decreased” and the serum hydroxybutyrate ([4]; oral 30 mg/kg, bid, db/db mice) was “decreased”. The total cholesterol ([4]; oral 30 mg/kg, bid, db/db mice) was “decreased”, the triglyceride ([4]; oral 30 mg/kg, bid, db/db mice) was “decreased” and the “effect on translocation of bacteria in FXR null mice” value ([5]; FXR null mice) was “lost”. The bacterial overgrowth ([5]; bile duct-ligated mouse) was “decreased”, the mucosal barrier ([5]; bile duct-ligated mouse) was “improved” and the “translocation of bacteria to mesenteric lymph nodes” value ([5]; bile duct-ligated mouse) was “decreased”. The “effect on cholesterol crystal formation in FXR null mice” value ([6]; FXR null mice) was “lost” and the “formation of cholesterol crystals in the bile” value ([6]; mice on a lithogenic diet) was “prevented”.
With `CC(C)c1onc(-c2c(Cl)cccc2Cl)c1COc1ccc2cc(-c3ccc(C(=O)O)nc3)ccc2c1` [Example 19, 5-[6-({[3-(2,6-Dichlorophenyl)-5-(1-methylethyl)-4-isoxazolyl]methyl}oxy)-2-naphthalenyl]-2-pyridinecarboxylic acid] the EC50 [1] was 102 to 1000 nM.
In the case of `CC(C)c1onc(-c2c(Cl)cccc2Cl)c1COc1ccc2nc(-c3cccc(C(=O)O)c3)sc2c1` [Example 11, 3-[6-({[3-(2,6-Dichlorophenyl)-5-(1-methylethyl)-4-isoxazolyl]methyl}oxy)-1,3-benzothiazol-2-yl]benzoic acid], the EC50 [1] is reported as 102 to 1000 nM.
`CC(C)c1onc(-c2c(Cl)cccc2Cl)c1COc1ccc2c(ccn2Cc2nc(C(=O)O)cs2)c1` [Example 51, 2-{[5-({[3-(2,6-Dichlorophenyl)-5-(1-methylethyl)-4-isoxazolyl]methyl}oxy)-1H-indol-1-yl]methyl}-1,3-thiazole-4-carboxylic acid] showed an EC50 [1] of 102 to 1000 nM.
`CC(=O)Nc1ccc(-c2ccc3cc(OCc4c(-c5c(Cl)cccc5Cl)noc4C(C)C)ccc3c2)cc1` [Example 31, N-{4-[6-({[3-(2,6-dichlorophenyl)-5-(1-methylethyl)-4-isoxazolyl]methyl}oxy)-2-naphthalenyl]phenyl}acetamide] showed an EC50 [1] of 102 to 1000 nM.
Molecule `CC(C)c1onc(-c2c(Cl)cccc2Cl)c1COc1ccc2c(c1)CCN(c1cccc(C(=O)O)c1)C2=O` [Example 60, 3-[6-({[3-(2,6-Dichlorophenyl)-5-(1-methylethyl)-4-isoxazolyl]methyl}oxy)-1-oxo-3,4-dihydro-2(1H)-isoquinolinyl]benzoic acid] has an EC50 [1] of 102 to 1000 nM.
`CC(C)c1onc(-c2c(Cl)cccc2Cl)c1COc1ccc2c(ccn2Cc2cccc(C(=O)O)c2)c1` [Example 59, 3-{[5-({[3-(2,6-Dichlorophenyl)-5-(1-methylethyl)-4-isoxazolyl]methyl}oxy)-1H-indol-1-yl]methyl}benzoic acid] gave an EC50 [1] of 102 to 1000 nM.
Work on `CC(C)c1onc(-c2c(Cl)cccc2Cl)c1COc1ccc2cc(-c3cccc(C(=O)O)c3)ccc2c1` [Example 38, 3-[6-({[3-(2,6-Dichlorophenyl)-5-(1-methylethyl)-4-isoxazolyl]methyl}oxy)-2-naphthalenyl]benzoic acid] yielded an EC50 [1] of 102 to 1000 nM.
For `CC(C)c1onc(COc2c(Cl)cc(Cl)cc2Cl)c1COc1ccc2c(ccn2Cc2cccc(C(=O)O)c2)c1` [Example 3, 3-[(5-{[(5-(1-methylethyl)-3-{[(2,4,6-trichlorophenyl)oxy]methyl}-4-isoxazolyl)methyl]oxy}-1H-indol-1-yl)methyl]benzoic acid], the EC50 [1] was 102 to 1000 nM.
`CC(C)c1onc(-c2c(Cl)cccc2Cl)c1COc1ccc2sc(-c3ccc(C(=O)O)cc3)cc2c1` [Example 16, 4-[5-({[3-(2,6-Dichlorophenyl)-5-(1-methylethyl)-4-isoxazolyl]methyl}oxy)-1-benzothien-2-yl]benzoic acid] showed an EC50 [1] of 102 to 1000 nM.
`CC(C)c1onc(-c2c(Cl)cccc2Cl)c1COc1ccc2c(Nc3cccc(C(=O)O)c3)cccc2c1` [Example 40, 3-{[6-({[3-(2,6-Dichlorophenyl)-5-(1-methylethyl)-4-isoxazolyl]methyl}oxy)-1-naphthalenyl]amino}benzoic acid] gave an EC50 [1] of 102 to 1000 nM.
Work on `CC(C)c1onc(-c2c(Cl)cccc2Cl)c1COc1ccc2c(c1)ncn2Cc1cccc(C(=O)O)c1` [Example 42, 3-{[5-({[3-(2,6-Dichlorophenyl)-5-(1-methylethyl)-4-isoxazolyl]methyl}oxy)-1H-benzimidazol-1-yl]methyl}benzoic acid] yielded an EC50 [1] of 1020 to 10000 nM.
